# According to patent US6406679B1, “Use of HL-60-related lectins in drug delivery and detection of lectin-expressing cells” (Incyte Pharmaceuticals, Inc., priority 1992, dated 2002):
# Columns and labels:
# BALB/c mice [1] = assay: B-cell repertoire: hybridoma clones producing antibodies against the immunizing antigen; assay type: in vivo, mouse; conditions: for Number of Clones Producing Antibodies: 180 primary clones; for Experimental % of Control: clones with lectin vs antigen only
# Experimental: The effect of the recombinant lectin on B-cell activation in BALB/c mice was also assayed using standard assays determining the number of hybridomas secreting antibodies to the administered antigen.
# Three BALB/c female mice (7-8 weeks old) were injected intraperitoneally with 5 μg of […], tetanus toxoid or pneumococcal polysaccharide, respectively, in complete Freund's adjuvant. Two weeks later, the mice were injected intravenously with the same amount of antigen in 0.15 M sodium phosphate buffer, pH 7.4. […]. A mixture of capsular polysaccharide extracts from 23 different serotypes of Streptococcus pneumoniae (Pneumovax®) was obtained from Merck Sharp & Dohme, Inc. (West Point, Pa.). Three other mice of the same strain were similarly immunized with these antigens in combination with 15 μg of the recombinant lectin; controls received only the antigens.
# The animals were sacrificed 4 days after the booster injection and spleen cells (10^8 cells) were fused with the nonsecreting B-lymphocytoma cell line SP2-OAg14 (2×10^7 cells). The cell mixture was distributed in 6×96 Costar tray wells (2×10^5 cells/well) with a feeder layer of mouse peritoneal macrophages (5×10^5 cells/well). From the third day in culture HAT (hypoxanthine-aminopterin-thymidine) medium was added. After 10-14 days, supernatants were assayed for binding to the respective antigens used for immunization using an enzyme-linked immunosorbent assay (ELISA).
# [2] = test system: T-cell lines MOLT4 and ARR on thymic epithelial cells; assay: Binding of cultured T-cells to thymic epithelial cells (DPM); assay type: cell-based, human; conditions: lectin-treated T-cells with terminal galactose residues, FIG. 4
# Experimental: The effects of the lectin on the binding of cultured T-cells to thymic epithelial cells were further tested according to the protocol of Singer et al., (Proc. Natl. Acad. Sci. (1986) 83:6588-92). T-cell lines MOLT4 and ARR (a T-cell line with sialic-acid-terminating glycoproteins) were incubated with tritiated thymidine. Next, the cells were treated with neuraminidase (which cleaves terminal sialic acids from the glycoproteins on ARR cells and leaves terminal galactose), galactosidase, endolactosaminidase or no enzyme. After this step, they cells were incubated with and without lectin. All the treatment and control groups of T-cells were layered over thymic epithelial cells, incubated and washed as described in Singer et al. Lastly, the amount of bound T-cells was quantitated by […] per minute (DPM).
# BALB/c mice [3] = assay: Primary immune response: serum antibody levels; assay type: in vivo, mouse
# Experimental: The effect of coadministration of lectin on the B-cell repertoire mounted as a primary response to immunization was also tested directly by antibody formation in the sera. Immunoassays for antibody content for the various antigens were performed as follows:
# For immunization with Torpedo acetylcholine receptor, microtiter: wells were coated overnight with 100 μl of a solution containing 5 μg/ml of purified receptor as prepared in Example 8, Part A, and incubated with serum (diluted 1/25) for 3 hours at 37° C. After washing, the plates were incubated for 3 hours at 37° C. with alkaline phosphatase-conjugated goat anti-mouse immunoglobulins. The plates were then washed extensively and incubated for 1 hour at 37° C. with […] ethanolamine buffer. The reaction was stopped by addition of 25 μl of 3 M NaOH, and the binding of the labeled antibody was measured in an ELISA microreader at 405 nm. […]
# For antibodies against mouse AChR, antibodies were determined using as antigen a complex between a partially purified normal mouse skeletal muscle receptor and ^125I-alpha-bungarotoxin. […]
# . […] The reaction was stopped by addition of 25 μl of 3 M NaOH, and the binding of the labeled antibody was measured in an ELISA microreader at 405 nm. […]
# . Blood was obtained after 3 days and again after 1, 2, 3 and 4 weeks and antibody levels were determined as described above.
# [4] = test system: Rat lymph node lymphocytes; assay: Agglutination of cells treated with lectin; assay type: cell-based; conditions: 250 μg/ml lectin, on ice 30 min
# Experimental: (§1) To analyze the mechanism of action of the inventive lectins as immunomodulators, a test was devised to discover whether these lectins bind lymphocytes and/or T-cells to endothelial cells. Thin sections of tissue containing inflamed rat brain vascular endothelium were prepared. Rat lymph node lymphocytes and human T-cells of the Jurkat line (10^7/ml in Dulbecco's modified Eagle medium (MEM) with 5% fetal bovine serum (FBS)) were treated with 250 μg/ml of the lectin of Example 1, with the lectin plus 1 mM beta-lactose, or with no additions and subsequently were placed on ice for 30 min. […] These effects were not observed when beta-lactose was added or when there were no additions.
# [5] = test system: human T-cells of the Jurkat line; assay: Agglutination of cells treated with lectin; assay type: cell-based; conditions: 250 μg/ml lectin, on ice 30 min
# Experimental: as §1
# lymph node cells [6] = assay: Response of lymph node cells to the lectin (mitogenicity); assay type: cell-based, rat; conditions: data not shown
# lymph node cells [7] = assay: In vivo effect of lectin on phenotypes of lymphocytes (antibody staining); set-up: species or system rat; conditions: for % positive / F^L / % CHANGE IN POSITIVES: Lymph Node Cells
# [8] = antibody IgG, lectin-treated rats
substance,measurement,setting,value
"Lectin: Soluble 14 kD β-galactoside-binding HL-60/placenta lectin of FIG. 1 (SEQ ID NO:2), prepared recombinantly in E. coli",Number of Clones Producing Antibodies,BALB/c mice [1]; Pneumococcal polysaccharide + 15 μg lectin,111
same,Experimental % of Control,BALB/c mice [1]; Pneumococcal polysaccharide,78%
same,Number of Clones Producing Antibodies,BALB/c mice [1]; Tetanus toxoid + 15 μg lectin,79
same,Experimental % of Control,BALB/c mice [1]; Tetanus toxoid,48%
same,Number of Clones Producing Antibodies,BALB/c mice [1]; Torpedo receptor + 15 μg lectin,54
same,Experimental % of Control,BALB/c mice [1]; Torpedo receptor,41%
same,Binding of T-cells to thymic epithelial cells,[2],appreciably bound
same,primary immune response to pneumococcal polysaccharide (T-independent antigen),"BALB/c mice [3]; any dose, FIG. 7",No effect
same,primary immune response to T-dependent antigens,"BALB/c mice [3]; higher doses of lectin (15 and 25 μg), FIGS. 6, 8, 9",significantly lowered
same,Clumping of rat lymphocytes,[4],moderately clumped
same,Agglutination of T-cells,[5],severely agglutinated
same,mitogenicity for lymph node cells,lymph node cells [6],not mitogenic
same,% positive,lymph node cells [7]; antibody 0X6,10.0%
same,F^L,lymph node cells [7]; antibody 0X6,1208
same,% CHANGE IN POSITIVES,"lymph node cells [7]; antibody 0X6, lectin vs control",0%
same,% positive,lymph node cells [7]; antibody 0X8,30.3%
same,F^L,lymph node cells [7]; antibody 0X8 (suppressor T-cells),472
same,% CHANGE IN POSITIVES,"lymph node cells [7]; antibody 0X8, lectin vs control",+28%
same,% positive,lymph node cells [7]; antibody 0X12,9.9%
same,F^L,lymph node cells [7]; antibody 0X12,316
same,% CHANGE IN POSITIVES,"lymph node cells [7]; antibody 0X12, lectin vs control",0%
same,% positive,lymph node cells [7]; [8],16.4%
same,F^L,lymph node cells [7]; [8],129
same,% positive,lymph node cells [7]; antibody W3/13,99.5%
same,F^L,lymph node cells [7]; antibody W3/13 (total T-cells),442
same,% CHANGE IN POSITIVES,"lymph node cells [7]; antibody W3/13, lectin vs control",0%
same,% positive,lymph node cells [7]; antibody W3/25,76.5%
same,F^L,lymph node cells [7]; antibody W3/25 (helper T-cells),230
same,% CHANGE IN POSITIVES,"lymph node cells [7]; antibody W3/25, lectin vs control",−0%
same,increase in the number of rat lymph node suppressor T-cells (0X8 reactive),lymph node cells [7]; lectin-treated animals,28%
